The structures appear in SMILES notation.

Broadly, the logP is a log measure of how a compound divides between an organic and an aqueous phase.

Regarding `CCC(CC)C(=O)NS(=O)(=O)c1ccc(C)cc1N`, the logP was determined as 2.18.

For the compound `Cc1ccc(S(N)(=O)=O)c(NC(=O)C(C)C)c1`, the logP came to 1.45.

On to `CCC(CC)C(=O)Nc1ccccc1S(N)(=O)=O`, for which the log partition coefficient (logP) was found to be 1.62. This logP and that of the compound before are within 0.2 log units of each other. The figure for `CC(C)C(=O)NS(=O)(=O)c1cc([N+](=O)[O-])cc(C(F)(F)F)c1` is 3.1; for `CCC(CC)C(=O)Nc1cc(C(F)(F)F)ccc1S(N)(=O)=O` it is 3.06; for `CC(C)C(=O)Nc1cc(Cl)ccc1S(N)(=O)=O` it is 1.87. `COc1ccc(S(=O)(=O)NC(=O)C(C)C)c(N)c1`: the lipophilicity (logP) is 1.58. With `COc1ccc(S(N)(=O)=O)c(NC(=O)C(C)C)c1` the figure was 1.37; with `CC(C)C(=O)NS(=O)(=O)c1ccccc1N`, 1.17; with `CCC(CC)C(=O)Nc1cc(Cl)ccc1S(N)(=O)=O`, 2.55. The compound `Cc1ccc(S(=O)(=O)NC(=O)C(C)C)c([N+](=O)[O-])c1` registered a lipophilicity (logP) of 2.17. With `CC(C)C(=O)NS(=O)(=O)c1ccccc1[N+](=O)[O-]` the figure was 1.72. With `CCC(CC)C(=O)NS(=O)(=O)c1ccc(Cl)cc1N` the figure was 2.53; with `Cc1ccc(S(=O)(=O)NC(=O)C(C)C)c(N)c1`, 1.65; with `CCC(CC)C(=O)NS(=O)(=O)c1ccccc1[N+](=O)[O-]`, 2.17. As to `CCC(CC)C(=O)NS(=O)(=O)c1ccccc1N`, the lipophilicity (logP) is 1.64. The figure for `CCC(CC)C(=O)Nc1cc(OC)ccc1S(N)(=O)=O` is 2.01. The figure for `CC(C)C(=O)NS(=O)(=O)c1ccc(C(F)(F)F)cc1N` is 2.56; for `CC(C)C(=O)Nc1ccccc1S(N)(=O)=O` it is 0.97; for `CCC(CC)C(=O)NS(=O)(=O)c1ccc(OC)cc1N` it is 2.03. `CC(C)C(=O)Nc1ccc(C(F)(F)F)cc1S(N)(=O)=O` registered a log partition coefficient (logP) of 2.45. `CCC(CC)C(=O)NS(=O)(=O)c1cc([N+](=O)[O-])cc(C(F)(F)F)c1` came in with a logP of 3.57. With `CCC(CC)C(=O)NS(=O)(=O)c1ccc(C)cc1[N+](=O)[O-]` the figure was 2.67; with `CCC(CC)C(=O)Nc1cc(C)ccc1S(N)(=O)=O`, 2.13.

These data come from the SangsterLogP compilation.
